Results taken from patent US20260242390A1, “TOTAL SYNTHESES OF PORTIMINE A AND ANALOGUES THEREOF AS SMALL MOLECULE MODULATORS OF NMD3” (priority 2023, published 2026).
Entries after “also recorded” stand apart in the source; their conditions may differ. Read-outs that look alike come from different tables or passages of the source.

System: Jurkat cells
Assay: Cell viability / toxicity in Jurkat cells
Format: cell-based, human
Conditions: for cell toxicity in leukemia (Jurkat) cancer cell line: 36-hour treatment; for toxicity to Jurkat cells: pM-nM concentration range (0.23 pM to 1 uM), 12 hr; for IC50: Homo sapiens, read-out: IC50 to Jurkat cells
From the text: FIG. 1. Portimine A is non-toxic to primary human PBMCs. Portimine A and its functional analogs show stereo-selective acute toxicity in cancer cells. […] (B) Structure of portimine related analogs: phenyl-portimine A (Ph-PA, 36) and epi-portimine A (ePA, 38). Structure of fully functionalized portimine A-based epimeric probe pair: portimine A-diazirine-alkyne (PA-DA, 35-2) and epi-portimine A-diazirine-alkyne (ePA-DA, 35-1). (C) Cell viability analysis of portimine A and analogs. […] All presented data as mean of biological replicated experiments (n=3). […]
Structurally related negative control ePA and PB are non-toxic in all cell types in the current concentrate range. PBMCs (25k per well), Jurkat (10k per well). […]
• 1) Portimine A and its functional analogs show stereo-selective acute toxicity in cancer cells (FIG. 1). […] (B) Structure of portimine related analogs: phenyl-portimine A (Ph-PA, 36) and epi-portimine A (ePA, 38). Structure of fully functionalized portimine A-based epimeric probe pair: portimine A-diazirine-alkyne (PA-DA, 35-2) and epi-portimine A-diazirine-alkyne (ePA-DA, 35-1). (C) Cell viability analysis of portimine A and analogs. […] All presented data as mean of biological replicated experiments (n=3). […] Structurally related negative control ePA and PB are non-toxic in all cell types in the current concentrate range. PBMCs (25k per well), Jurkat (10k per well). […] Cell cycle analysis in Jurkat cells (FIG. 2). […] (A) PA and Ph-PA show less toxic to healthy PBMCs compared to Jurkat cells. […] (B) Immunoblot of caspase-3 in Jurkat and PBMCs with indicated conditions. […] (A) Pharmacokinetic studies of mouse intraperitoneal (i.p.) and oral (p.o.) administration for portimine (n=3). […] Impact of PA [0.3 or 1 mg/kg intraperitoneally] on MC38 tumor growth in WT mice (n=6). (C) Kaplan-Myer survival curve of WT MC38 tumor-bearing mice (n=6) after treatment with PA as described in (D). Mice were euthanized when tumor area exceeded 2000 mm^3. Statistical analysis was performed using ANOVA analysis followed by multiple comparisons test, * p≤0.05. Treatment condition: Jurkat (60 M per condition); PA-DA/ePA-DA concentration: 0.5 uM, PA or ePA: 5 uM; Incubate with probe with or without competitors (PA, ePA) for 30 min; UV irradiated for 20 min. (0.5 uM PA-DA add a no-UV condition), Standard pulldown & biotin-enrichment and western blot analysis (Elute condition: 2× sample buffer+500 uM biotin, boil for 20 mins); Primary antibody NMD3 (ProteinTech, 1:150), Actin (BioRad, 1:10000). […] Chemical proteomic profiling with PA-DA in Jurkat cells (A, B, C, G) and HCC1806 cells (D, E, F, H) show NMD3 is the primary target candidate of portimine A. […] (I, J) Confirmation of PA-DA engagement of NMD3 in Jurkat and HCC1806 cells. […] Treatment condition: Jurkat (5M per well). Portimine A concentration: 2 nM-1000 nM; In total treat cell for 12 hours. […] Protein degradation of p53, Mcl1, Bid, Bim, Noxa can be rescued by MG132 or Epoxomicin. (B) NMD3 mRNA increased after PA treatment, but not ePA control compound. […] (A) Immunoblot showing reduced NMD3 levels in shNMD3 Jurkat and HeLa cells. […] Data represents mean±SD of biologically replicated experiments (n=3). […] Cell lysates were fractionated by sucrose gradient (5-50%) and each fraction were analyzed by western blot. eIF6 levels increase in 60S subunit fraction and decrease in ribosome-free fractions after PA treatment. RPS6, a 40S and polysome subunits marker, is decreased in polysome fractions after PA treatment. Results are representative of three independent experiments. […] Relative protein levels in each fraction were normalized to the peak fraction of the indicated protein from the DMSO cells and plotted. Data represents mean±SD of biologically replicated experiments (n=3). Statistical analysis was performed using multiple unpaired Student t-test. * p≤0.05; ** p≤0.01; *** p≤0.005; **** p≤0.0001. […]

C=CC1=C[C@@H]2[C@@H]3O[C@]4(CC[C@H](O4)C(C)C[C@@H](O)C3=O)C[C@@H](O)C3=NCC[C@@]32CC1 (stereo partly drawn) [ePA, epi-portimine A]
cell toxicity in leukemia (Jurkat) cancer cell line: minimal effects | toxicity to Jurkat cells: non-toxic; also recorded: non-toxicity

C=CC1=C[C@@H]2[C@@H]3O[C@]4(CC[C@H](O4)C(C)C[C@@H](O)C3=O)CC(O)C3=NCC[C@@]32CC1 (stereo partly drawn) [PA, portimine A]
IC50 (Jurkat, 12 h): ~2 nM

CC1C[C@@H](O)C(=O)[C@H]2O[C@]3(CC[C@@H]1O3)CC(O)C1=NCC[C@@]13CCC(c1ccccc1)=C[C@H]23 (stereo partly drawn) [Ph-PA, phenyl-portimine A]
IC50 (after 12 hr, Jurkat 10k per well, 0.23 pM to 1 uM): ~2 nM

C=CC1=C[C@@H]2[C@@H]3OC4(CC[C@H](O4)C(C)C[C@@H](O)C3=O)CC(=O)C3=NCC[C@@]32CC1 (stereo partly drawn) [PB, portimine B]
cell toxicity in leukemia (Jurkat) cancer cell line: minimal effects | toxicity to Jurkat cells: non-toxic; also recorded: non-toxicity
